Data as given in the NIST ThermoML archive (doi:10.1016/j.jct.2013.02.023).
± gives the expanded uncertainty stated by the source.

Conditions: relaxation calorimetry - Quantum Design PPMS; for molar entropy: 101.33 kPa

O=P([O-])([O-])OP(=O)([O-])[O-].O=P([O-])([O-])OP(=O)([O-])[O-].O=P([O-])([O-])OP(=O)([O-])[O-].[Fe+3].[Fe+3].[Fe+3].[Fe+3] [iron(III) diphosphate]
Conditions	molar entropy [J/K/mol]
1 K, Crystal 3	0.07578 ± 0.012
2 K, Crystal 3	0.1665 ± 0.026
3 K, Crystal 3	0.2869 ± 0.044
4 K, Crystal 3	0.4556 ± 0.07
5 K, Crystal 3	0.6947 ± 0.11
6 K, Crystal 3	1.027 ± 0.16
7 K, Crystal 3	1.472 ± 0.23
8 K, Crystal 3	2.047 ± 0.31
9 K, Crystal 3	2.754 ± 0.42
10 K, Crystal 3	3.591 ± 0.13
11 K, Crystal 3	4.553 ± 0.17
12 K, Crystal 3	5.629 ± 0.2
13 K, Crystal 3	6.809 ± 0.25
14 K, Crystal 3	8.084 ± 0.29
15 K, Crystal 3	9.437 ± 0.34
16 K, Crystal 3	10.86 ± 0.39
17 K, Crystal 3	12.36 ± 0.45
18 K, Crystal 3	13.92 ± 0.5
19 K, Crystal 3	15.55 ± 0.56
20 K, Crystal 3	17.25 ± 0.62
25 K, Crystal 3	26.52 ± 0.96
30 K, Crystal 2	36.76 ± 1.3
35 K, Crystal 2	47.46 ± 1.7
40 K, Crystal 2	59.06 ± 2.1
45 K, Crystal 2	71.73 ± 2.6
50 K, Crystal 1	84.46 ± 2.8
55 K, Crystal 1	93.95 ± 3.1
60 K, Crystal 1	103.22 ± 3.4
65 K, Crystal 1	112.55 ± 3.7
70 K, Crystal 1	121.98 ± 4
75 K, Crystal 1	131.56 ± 4.3
80 K, Crystal 1	141.27 ± 4.7
85 K, Crystal 1	151.12 ± 5
90 K, Crystal 1	161.1 ± 5.3
95 K, Crystal 1	171.2 ± 5.7
100 K, Crystal 1	181.43 ± 6
110 K, Crystal 1	202.07 ± 6.7
120 K, Crystal 1	222.81 ± 7.3
130 K, Crystal 1	243.5 ± 8
140 K, Crystal 1	264.06 ± 8.7
150 K, Crystal 1	284.46 ± 9.4
160 K, Crystal 1	304.66 ± 10
170 K, Crystal 1	324.67 ± 11
180 K, Crystal 1	344.47 ± 11
190 K, Crystal 1	364.05 ± 12
200 K, Crystal 1	383.42 ± 13
210 K, Crystal 1	402.56 ± 13
220 K, Crystal 1	421.48 ± 14
230 K, Crystal 1	440.17 ± 15
240 K, Crystal 1	458.61 ± 15
250 K, Crystal 1	476.82 ± 16
260 K, Crystal 1	494.79 ± 16
270 K, Crystal 1	512.5 ± 17
273.15 K, Crystal 1	518.03 ± 17
280 K, Crystal 1	529.97 ± 17
290 K, Crystal 1	547.19 ± 18
298.15 K, Crystal 1	561.03 ± 19
300 K, Crystal 1	564.15 ± 19

Conditions	Triple point temperature [K]
Crystal 2	47.6 ± 0.1
Crystal 3	27.3 ± 0.2
